How the values were obtained:
[1] = biological target: T1, RBD of SARS-CoV-2 spike protein binding to hACE2 receptor (Severe acute respiratory syndrome coronavirus 2, UniProt P0DTC2); experiment: biochemical
T1 construct: purchased GenScript

[2] = biological target: T2, hACE2 receptor (Homo sapiens, UniProt Q9BYF1); format: binding
T2 construct: purchased GenScript

[3] = system: SARS-CoV-2 spike protein pseudo-typed virions; format: cell-based
[4] = system: SARS-CoV-2 spike protein pseudo-typed virions; format: cell-based; remark: listed apart in the source
[5] = system: IL-6 secretion; experiment: Interleukin 6 (IL-6) assay in HSAEpC (ELISA); format: cell-based, human; details: LPS 5 mcg/ml
Protocol: Interleukin 6 (IL-6) assay: Human Small Airways Epithelial Cells (HSAEpC) were supplied by ATCC and cultured in Small Airways Epithelial Cells culture medium (ATCC). SAEC cells were seeded in six-well plates covered with collagen at 6 passage and grown to confluent layer. […] After 72 hours incubation conditioned media were collected and IL-6 content was measured using R&D Systems Human IL6 ELISA assay in accordance with the manufacture's protocol. Results were calculated with Microsoft Excel software and presented as a percentage of unsupplemented controls (an average of three repetitions+/−standard deviation).

T2 sequence (Q9BYF1 18-740): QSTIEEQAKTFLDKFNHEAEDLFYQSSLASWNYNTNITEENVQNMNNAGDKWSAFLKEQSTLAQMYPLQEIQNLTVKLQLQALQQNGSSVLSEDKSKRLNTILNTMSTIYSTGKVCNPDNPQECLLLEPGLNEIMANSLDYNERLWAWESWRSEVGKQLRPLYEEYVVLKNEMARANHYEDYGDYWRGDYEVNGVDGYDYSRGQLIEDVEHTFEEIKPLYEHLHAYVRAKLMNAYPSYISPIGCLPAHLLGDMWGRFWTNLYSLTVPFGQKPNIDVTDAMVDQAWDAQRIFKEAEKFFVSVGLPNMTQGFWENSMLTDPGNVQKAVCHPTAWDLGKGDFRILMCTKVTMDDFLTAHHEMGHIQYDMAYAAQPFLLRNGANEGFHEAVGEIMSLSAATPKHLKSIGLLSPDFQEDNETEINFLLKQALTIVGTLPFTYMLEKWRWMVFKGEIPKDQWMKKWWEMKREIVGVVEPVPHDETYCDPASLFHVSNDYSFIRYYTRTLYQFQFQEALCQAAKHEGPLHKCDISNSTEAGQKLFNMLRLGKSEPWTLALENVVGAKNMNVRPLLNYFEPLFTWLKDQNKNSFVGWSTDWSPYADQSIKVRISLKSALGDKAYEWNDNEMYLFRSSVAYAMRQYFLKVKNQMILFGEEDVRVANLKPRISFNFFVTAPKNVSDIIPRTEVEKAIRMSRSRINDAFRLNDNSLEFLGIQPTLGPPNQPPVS

Row | Compound | affinity in binding to the RBD-spike protein of SARS-CoV-2 (in words) [1] | inhibition at 100 µg/mL ([1]; 100 μg/ml, read-out: efficacy in inhibiting RBD binding to hACE2) | binding to the ACE2 receptor itself (in words) [2] | Binging with ACE2 (% of control ± SD) ([2]; Table 3, tested at 0.1 mg/ml) | inhibition of pseudo-typed virion binding to hACE2/A549 (in words) [3] | concentration from which inhibition of transduction is statistically significant [4] | increase of IL-6 secretion [5]
1 | COc1cc(/C=C/C(=O)CC(=O)/C=C/c2ccc(O)c(OC)c2)ccc1O [Curcumin] | exhibited the highest affinity | 100% | moderate binding | 4.6 ± 2.4 % of control | similarly inhibited binding | 5.0 µg/mL | 
2 | lipopolysaccharide |  |  |  |  |  |  | 43%

— US20220304976A1, “Method of simultaneously treating viral disease caused coronavirus, its variants and mutants using a pharmaceutical micronutrient composition” (priority 2021, published 2022)
